Measured values published in publication PMC8341977, “Towards novel herbicide modes of action by inhibiting lysine biosynthesis in plants” (eLife, 2021).
Like-named read-outs stand apart in the source and are kept apart here.

How the values were obtained:
[1] = molecular target: T1, AtDHDPS2 (dihydrodipicolinate synthase 2) (Arabidopsis thaliana, UniProt Q9FVC8); experiment: DHDPS–DHDPR coupled enzyme assay (NADPH oxidation); assay type: biochemical
T1 construct: gene DHDPS2; recombinant, fusion tag cleaved
T1 sequence (Q9FVC8 40-365): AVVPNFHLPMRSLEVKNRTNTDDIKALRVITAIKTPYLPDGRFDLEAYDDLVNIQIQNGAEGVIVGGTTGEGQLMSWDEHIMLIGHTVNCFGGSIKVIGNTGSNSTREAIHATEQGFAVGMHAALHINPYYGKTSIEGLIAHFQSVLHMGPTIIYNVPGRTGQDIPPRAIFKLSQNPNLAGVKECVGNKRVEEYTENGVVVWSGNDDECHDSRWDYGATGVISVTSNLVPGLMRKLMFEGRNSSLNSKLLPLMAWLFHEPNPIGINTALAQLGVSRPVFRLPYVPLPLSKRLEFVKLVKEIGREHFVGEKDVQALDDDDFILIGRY

[2] = molecular target: T2, AtDHDPS1 (dihydrodipicolinate synthase 1) (Arabidopsis thaliana, UniProt Q9LZX6); experiment: DHDPS–DHDPR coupled enzyme assay (NADPH oxidation); assay type: biochemical
T2 construct: gene DHDPS1; recombinant, fusion tag cleaved
T2 sequence (Q9LZX6 40-365): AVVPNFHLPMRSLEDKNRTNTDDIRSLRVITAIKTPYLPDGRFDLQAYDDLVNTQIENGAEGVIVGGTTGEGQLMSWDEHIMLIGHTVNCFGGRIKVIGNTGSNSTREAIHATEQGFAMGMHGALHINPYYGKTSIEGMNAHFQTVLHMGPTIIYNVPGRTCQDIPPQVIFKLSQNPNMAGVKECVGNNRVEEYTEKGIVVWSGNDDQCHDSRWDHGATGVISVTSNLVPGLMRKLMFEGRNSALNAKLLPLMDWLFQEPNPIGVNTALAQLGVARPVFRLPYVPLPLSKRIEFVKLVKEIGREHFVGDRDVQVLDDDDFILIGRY

IC50 [2]	IC50 ([1]; read-out: IC50)	Compound	IC50 [1]
		COc1ccc(C=C2SC(=O)N(CC(=O)O)C2=O)cc1 (stereo in doubt) [MBDTA-2, (Z)−2-(5-(4-methoxybenzylidene)−2,4-dioxothiazolidin-3-yl)acetic acid]	64 ± 1 µM
126 ± 6.5 µM	116 ± 5.2 µM	COc1ccccc1/C=C1\SC(=O)N(CC(=O)O)C1=O [MBDTA-1, (Z)−2-(5-(2-methoxybenzylidene)−2,4-dioxothiazolidin-3-yl)acetic acid]	
